Assay results reported in patent US8741559B2, “Cellular assay employing detectable protein” (DiscoveRx Corporation, priority 2009, dated 2014).

Tests used:
[1] = test system: FRAP1; test: Phospho-Akt1 (Ser473) cellular assay; type: cell-based, human; settings: Hek 293 cells; for IC50 through the FRAP1 pathway compared with the PDPK1 pathway: anti-phospho Akt1 (Ser473) versus anti-phospho Akt (Thr308) assays; for dose response in the phospho-Akt1 (Ser473) assay: FIG. 5
Protocol: (§1) In this cellular assay, compounds were tested for their ability to inhibit Braf, by measuring the phosphorylation of Mek1, a direct kinase substrate of Braf. A375 cells expressing the constitutively active Braf V600E mutation were plated at a density of 3e5 cells/mL in a 10 cm plate and transfected with expression plasmid encoding detectable protein (16 μg) in 1 mL OPTI-MEM buffer (GIBCO/Invitrogen) with 40 μL Lipofectamine 2000 (Invitrogen) and incubated at 37° C. for 18-22 h. On the following day, media was removed and cells washed with PBS, trypsinized then quenched with M3 media (DMEM containing 10% FBS). Cells were counted and resuspended in M3 complete media to a density of […] and then plated at 50,000 cells/well/100 μL into a 96-well plate and incubated at 37° C. for 3h. Media was then removed and starvation media (0.5% FBS/DMEM) was added to the wells and allowed to incubate overnight. On the following day, the cells were incubated with compound in M3 starvation media and incubated at 37° C. for 2 hours.
The cells were centrifuged at 3000 rpm for 20 minutes. […] Lysate dilution was carried out in two steps. The 96-well plate containing 10 μL extract aliquot was thawed at room temp, and 40 microliters of a solution of 0.1% BSA /1× PBS 0.05% Tween with 2 nM nucleic acid tag serving as the NF-κB probe was added, and mixed by orbital shaking at 450 rpm at room temp for 10 min. Then 270 microliters of a solution of 20 microgram per mL sheared salmon sperm DNA in 0.1% BSA/1× PBS 0.05was added, and mixed gently by pipetting up and down.
On the following day, beads were pelleted then washed/blocked and resuspended in 1-2×2% BSA/PBST and plated out onto a 96-well polypropylene plate at half the original stock concentration. The phospho-MEK1 binding assay was carried out on a separate plate containing 25 μL of beads and 100 μL 2% BSA/PBST which was shaken until the addition of cell lysate. For the binding assay, beads were first pelleted and the buffer aspirated, and then 100 μL of diluted lysate was added to each well and the plate was shaken at room temperature for one hour. After the binding step, the beads were pelleted for 4 minutes, the buffer aspirated and 150 μL of PBST was added. The plate was briefly shaken and then pelleted over a magnet and then washed two to four times with wash buffer (1× PBS/0.05% Tween 20) to remove unbound proteins. After the final wash, the beads were resuspended in 150 μL of IgG elution buffer (Pierce Cat No. 21004) supplemented with Tween 20 to 0.05% and incubated at room temperature with shaking for 60 minutes. After pelleting the beads, 50 μL of the eluted mixture was removed, and added to 30 μL of 200 mM Tris base, mixed well, and then transferred to the DNA detection assay. For qPCR, 2.5 μL was transferred to 7.5 μL of mastermix with appropriate primers and probes (Applied Biosystems).
As shown in the diagram in FIG. 2, the PIK3CA kinase mediates signaling through two separate pathways, e.g., by direct activation of the kinase substrates FRAP1 (the kinase domain of mTOR), or other less-studied kinases known as “PDK2” in the literature and PDPK1, both of which in turn phosphorylate Akt. […] Therefore, using this cellular assay, compounds were interrogated for their inhibitory mechanism not only against PIK3CA but also against FRAP1 or PDPK1, by measuring site-specific phosphorylation of Akt. […] A binding assay using anti-total Akt1 antibody was also run in parallel to normalize the amount of measured phospho-Akt1 across wells.

[2] = test system: PDPK1; test: Phospho-Akt1 (Thr308) cellular assay; type: cell-based, human; settings: Hek 293 cells, FIG. 6
Protocol: as §1, with “On the following day, the cells were incubated with compound in M3 starvation media and incubated at 37° C. for 2 hours.” left out
As shown in the diagram in FIG. 2, the PIK3CA kinase mediates signaling through two separate pathways, e.g., by direct activation of the kinase substrates FRAP1 (the kinase domain of mTOR), or other less-studied kinases known as “PDK2” in the literature and PDPK1, both of which in turn phosphorylate Akt. […] A binding assay using anti-total Akt1 antibody was also run in parallel to normalize the amount of measured phospho-Akt1 across wells.

| Compound | IC50 through the FRAP1 pathway compared with the PDPK1 pathway [1] | dose response in the phospho-Akt1 (Ser473) assay [1] | inhibition of Thr308 phosphorylation of Akt [2] |
| --- | --- | --- | --- |
| FC(F)c1nc2ccccc2n1-c1nc(N2CCOCC2)nc(N2CCOCC2)n1 [ZSTK-474] | nearly equipotent IC50s |  |  |
| O=C(NCCCNc1nc(Nc2cccc(NC(=O)N3CCCC3)c2)ncc1I)c1cccs1 [BX-795] | selectively inhibiting PDPK1 over FRAP1 | insensitive |  |
| Nc1nc(N)c2nc(-c3cccc(O)c3)c(-c3cccc(O)c3)nc2n1 [TG-100-115] |  | insensitive |  |
| Oc1cccc(-c2nc(N3CCOCC3)c3oc4ncccc4c3n2)c1 [PI103] | nearly equipotent IC50 |  |  |
| C[C@@H]1C[C@H]2O[C@@H]2/C=C\C=C\C(=O)Cc2c(Cl)c(O)cc(O)c2C(=O)O1 [radicicol] |  | partially sensitive | could only partially inhibit Thr308 phosphorylation |
